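In this assay, cells in 96-well plates receive the compound at five concentrations for 48 hours. Endpoints are linearly interpolated between the surrounding concentrations. GI50 = concentration required for 50% inhibition of growth. Definition used: TGI = concentration required for complete inhibition of growth.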
What was measured:
Experiment in all cases: DTP human tumour cell line panel, 48 h
NCI-H23 lung = system: NCI-H23 lung
SK-MEL-28 melanoma = system: SK-MEL-28 melanoma
UACC-257 melanoma = system: UACC-257 melanoma
A498 renal = system: A498 renal
MALME-3M melanoma = system: MALME-3M melanoma
IGROV1 ovarian = system: IGROV1 ovarian
SK-MEL-5 melanoma = system: SK-MEL-5 melanoma
CCRF-CEM leukemia = system: CCRF-CEM leukemia
M14 melanoma = system: M14 melanoma
T-47D breast = system: T-47D breast

Structure (SMILES)	TGI (NCI-H23 lung)	TGI (SK-MEL-28 melanoma)	TGI (UACC-257 melanoma)	TGI (A498 renal)	TGI (MALME-3M melanoma)	TGI (IGROV1 ovarian)	TGI (SK-MEL-5 melanoma)	TGI (CCRF-CEM leukemia)	TGI (M14 melanoma)	TGI (T-47D breast)	GI50 (NCI-H23 lung)	GI50 (SK-MEL-28 melanoma)	GI50 (M14 melanoma)	GI50 (UACC-257 melanoma)	GI50 (A498 renal)	GI50 (MALME-3M melanoma)	GI50 (IGROV1 ovarian)	GI50 (SK-MEL-5 melanoma)	GI50 (T-47D breast)	GI50 (CCRF-CEM leukemia)
COc1cc2c(cc1Oc1c(Oc3c(O)c(OC)cc4c3C(CC(C)C)N(C)CC4)c(OC)cc3c1C(CC(C)C)N(C)CC3)C(CC(C)C)N(C)CC2 (stereo unspecified)	4.91 µM	13.6 µM	11.5 µM	0.304 µM	7.39 µM	15.1 µM	0.832 µM	6.3 µM	–	–	–	–	–	–	–	–	–	–	–	–
CC(=O)C(C(C)=O)[C@@H]1OC(C)(C)O[C@@H]1[C@H]1COC(C)(C)O1	> 100 µM	> 100 µM	> 100 µM	> 100 µM	52.4 µM	> 100 µM	> 100 µM	–	> 100 µM	–	–	–	–	–	–	–	–	–	–	–
Cc1ccc(N=Nc2c(O)ccc3cc(S(=O)(=O)O)ccc23)cc1	> 100 µM	> 100 µM	> 100 µM	> 100 µM	> 100 µM	> 100 µM	> 100 µM	> 100 µM	> 100 µM	> 100 µM	–	–	–	–	–	–	–	–	–	–
Cc1cc(OCCOCCC(F)(F)P(=O)(O)O)ccc1CCc1cnc2c(N)nc3cc(CCC(=O)O)ccc3c2c1	> 100 µM	> 100 µM	> 100 µM	> 100 µM	> 100 µM	> 100 µM	> 100 µM	> 100 µM	> 100 µM	> 100 µM	> 100 µM	> 100 µM	> 100 µM	> 100 µM	26.2 µM	> 100 µM	> 100 µM	> 100 µM	> 100 µM	> 100 µM
COC(=O)c1cn(CC(O)CCl)nn1 (stereo unspecified)	> 100 µM	> 100 µM	> 100 µM	> 100 µM	> 100 µM	> 100 µM	> 100 µM	> 100 µM	> 100 µM	> 100 µM	–	–	–	–	–	–	–	–	–	–
S=c1nc(N/N=C/c2cccs2)c2cn[nH]c2[nH]1	66.4 µM	> 100 µM	> 100 µM	> 100 µM	> 100 µM	75.1 µM	> 100 µM	–	> 100 µM	> 100 µM	–	–	–	–	–	–	–	–	–	–
CN1Cc2cc(O)c(O)cc2C(O)C1 (stereo unspecified)	> 100 µM	> 100 µM	> 100 µM	–	> 100 µM	> 100 µM	> 100 µM	> 100 µM	> 100 µM	> 100 µM	–	–	–	–	–	–	–	–	–	–
COC(=O)CNC(=O)CCC(C)[C@H]1CCC2C3C(C[C@H](OC(C)=O)[C@@]21C)[C@@]1(C)CCC2(C[C@H]1C[C@H]3OC(C)=O)OOC1(CC[C@]3(C)C4C[C@H](OC(C)=O)[C@@]5(C)C(CC[C@@H]5C(C)CCC(=O)NCC(=O)OC)C4[C@H](OC(C)=O)C[C@@H]3C1)OO2 (stereo partly specified)	3.66 µM	9.52 µM	2.74 µM	39.8 µM	1.93 µM	1.91 µM	–	1.57 µM	7.96 µM	22.4 µM	–	–	–	–	–	–	–	–	–	–
COC1=C(C)C(=O)C2=C(C1=O)C1C3CC4=C(C(=O)C(OC)=C(C)C4=O)C(CNC(=O)C(C)O)N3C(C#N)C(C2)N1C (stereo unspecified)	0.0183 µM	< 0.0217 µM	0.0102 µM	–	< 0.0139 µM	1.07 µM	< 0.01 µM	1.38 µM	0.0173 µM	< 0.01 µM	–	–	–	–	–	–	–	–	–	–
C=CC(C)C1(CCCOCc2ccccc2)C(=S)N2CCC3(CC24CCCC14)OCCO3 (stereo unspecified)	> 100 µM	> 100 µM	> 100 µM	> 100 µM	> 100 µM	> 100 µM	–	> 100 µM	–	–	–	–	–	–	–	–	–	–	–	–
CN(O)C(=O)CCCC(=O)NCC(C)(C)CNC(=O)CCCC(=O)N(C)O	> 100 µM	–	> 100 µM	> 100 µM	> 100 µM	> 100 µM	> 100 µM	> 100 µM	> 100 µM	> 100 µM	–	–	–	–	–	–	–	–	–	–
Cc1[nH]c2ccccc2c1/C=N/NC(=O)c1cccc(I)c1	53.5 µM	76.3 µM	54.5 µM	34.6 µM	65.6 µM	75.3 µM	29.1 µM	63.2 µM	30 µM	52.9 µM	–	–	–	–	–	–	–	–	–	–
COC(=O)[C@]1(c2ccc(N(C)C)cc2OC)C[C@@H]2CCCN(CCc3c1[nH]c1ccccc31)C2	> 51.1 µM	35.1 µM	39.6 µM	47 µM	33.2 µM	48 µM	31.4 µM	> 84.3 µM	–	–	–	–	–	–	–	–	–	–	–	–
O=P(Nc1ccccc1)(Oc1ccccc1)N(CCCl)CCCl (stereo unspecified)	> 100 µM	> 100 µM	> 100 µM	> 100 µM	> 100 µM	> 100 µM	> 100 µM	> 100 µM	> 100 µM	–	–	–	–	–	–	–	–	–	–	–
O=C(c1cccnc1)N1N=C(c2ccccc2)CC1(O)c1cc(F)c(Cl)cc1Cl (stereo unspecified)	> 100 µM	65.5 µM	39.7 µM	–	83 µM	59.9 µM	27.6 µM	> 100 µM	53.7 µM	62.4 µM	–	–	–	–	–	–	–	–	–	–
CCCOP(=O)(OCCC)OC(C(F)(F)F)C(F)(F)F	> 100 µM	> 100 µM	> 100 µM	> 100 µM	> 100 µM	–	–	> 100 µM	> 100 µM	> 100 µM	–	–	–	–	–	–	–	–	–	–
O=C(Nc1ccccc1Cl)c1ccc([N+](=O)[O-])cc1	> 100 µM	> 100 µM	> 100 µM	> 100 µM	> 100 µM	> 100 µM	> 100 µM	> 100 µM	> 100 µM	–	–	–	–	–	–	–	–	–	–	–
O=C(O)/C(=C\c1ccc(O)cc1)c1cccc2ccccc12	> 100 µM	> 100 µM	> 100 µM	> 100 µM	> 100 µM	> 100 µM	> 100 µM	–	> 100 µM	> 100 µM	–	–	–	–	–	–	–	–	–	–
COc1ccc(-c2ncn(C[Si](C)(C)C)c2-c2ccc(OC)cc2)cc1	18.5 µM	14.8 µM	16.7 µM	–	23.7 µM	23.1 µM	10.2 µM	–	14.8 µM	–	–	–	–	–	–	–	–	–	–	–
CC(C)C(=O)/C=C/S/C=C/C(=O)C(C)C	7.57 µM	21.1 µM	6.5 µM	–	25.6 µM	45.8 µM	21.7 µM	–	20.2 µM	65.7 µM	–	–	–	–	–	–	–	–	–	–
COc1ccc(NC(C(N)=O)c2cc3cc(Br)ccc3nc2Cl)cc1 (stereo unspecified)	> 100 µM	> 100 µM	> 100 µM	> 100 µM	> 100 µM	> 100 µM	> 100 µM	> 100 µM	> 100 µM	> 100 µM	–	–	–	–	–	–	–	–	–	–
CCCCCCCCCCCCCC[n+]1ccc(C(N)=O)cc1	15.2 µM	7.49 µM	6.08 µM	21.5 µM	7.72 µM	2.91 µM	–	> 100 µM	–	14 µM	2.42 µM	2.83 µM	–	2.24 µM	3.07 µM	2.27 µM	1.05 µM	–	3.13 µM	2.52 µM

— PubChem BioAssay (NCI)
